Results taken from patent publication US20110237644A1, “UBIQUITIN SPECIFIC PROTEASES RESPONSIBLE FOR MCL-1 STABILITY AND USES THEREOF” (Les Laboratoires Servier, priority 2008, published 2011).

How the values were obtained:
Mcl-1 in HCT116 cells = experiment: USP siRNA screening on Mcl-1 half-life with cycloheximide, Western blot; assay type: cell-based, human; conditions: confirmation experiment
Method: FIG. 1 (FIGS. 1.1, 1.2, 1.3): Schematic representation of Mcl-1 modulation following USP silencing at t=0, 30 min or 1 h of cycloheximide treatment in HCT116 cells. Mcl-1 increase and decrease are respectively presented in blue and green and siRNA toxicity is presented in grey. Absence of color corresponds to absence of any effect. Selected USP for confirmation experiments are highlighted in green (USP5, USP13, USP19, USP21, USP22, USP26, USP28, USP38, USP42 and USP46). SiRNA designed to target pairs of USP are indicated on the right of the table.
For the screening, the indicated amounts of siRNA (40 pmol, 72 nM final) were complexed with 2 μl of Oligofectamine (Invitrogen) in Opti-MEM (Invitrogen) and added to 24-well plates prior to cell seeding. 150 000 HCT116 cells were next plated. Opti-MEM was replaced with appropriate medium 5 hours after transfection. After 72 h of transfection and before harvesting, cells were treated or not with cycloheximide (30 μg/ml) for 30 min or 1 hour or treated with MG132 (30 μM) for 90 min.
Cells were washed once in chilled PBS and harvested by trypsination. Floating and trypsinized cells were pooled and collected by centrifugation. […] Proteins were quantitated using bicinchoninic acid (Sigma-Aldrich) according to manufacturer's instructions. […] Signal was detected using ECL reagent (Amersham) following manufacturer's instructions. […]

A1 = molecular target: T1, A1 (Homo sapiens, UniProt Q16548); conditions: cited from earlier work
T1 sequence (Q16548 1-175): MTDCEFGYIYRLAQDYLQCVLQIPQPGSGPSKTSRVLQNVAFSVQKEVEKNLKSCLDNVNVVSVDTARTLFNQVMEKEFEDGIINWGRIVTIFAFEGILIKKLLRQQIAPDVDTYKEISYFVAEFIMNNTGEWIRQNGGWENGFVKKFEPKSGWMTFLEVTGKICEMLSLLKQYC

HeLa cells = experiment: Flow cytometry, subG1-phase cells (apoptosis); assay type: cell-based, human; conditions: ABT-737 (3 μM) in Luc siRNA-treated HeLa cells
Method: FIG. 13: Flow cytometry of HeLa cancer cell transfected with luc, mcl-1, USP46v1, USP46v4 or USP46 pool siRNA. Cell cycle was determined 72 h after siRNA transfection and 18 h after ABT-737 treatment (3 μM).
FIG. 14: ABT-737-induced subG1 transition in HeLa cells determined 72 h after siRNA transfection and 24 h after ABT-737 treatment. The percentage of cells in the subG1 (<2N) are means+/−SD of duplicate values (A). Mcl-1 endogenous level was also determined in the presence of siRNA targeting either luciferase, Mcl-1 or USP46. Anti-Stat3 antibody was used as loading control (B).
All cell lines used were maintained in their respective medium. All culture media were supplemented with 100 units/ml penicillin and 0.1 mg/ml streptomycin, and cell lines were incubated at 37° C. in a humidified atmosphere containing 5% CO2. For siRNA transfection, siRNA (40 pmol, 72 nM final) were complexed with 2 μl of Oligofectamine (Invitrogen) in Opti-MEM (Invitrogen) and added to 24-well plates prior to cell seeding. In all conditions, Opti-MEM was replaced with appropriate medium 5 hours after transfection. […]
To confirm the effect of USP46 siRNA on the sensitization of cells to ABT-737-induced apoptosis in HeLa cells, the number of subG1-phase cells is quantified which reflect mainly apoptosis. […]

Mcl-1 = Mcl-1 (Homo sapiens, UniProt Q07820); conditions: cited from earlier work
Sequence of Mcl-1 (Q07820 whole entry, species assumed): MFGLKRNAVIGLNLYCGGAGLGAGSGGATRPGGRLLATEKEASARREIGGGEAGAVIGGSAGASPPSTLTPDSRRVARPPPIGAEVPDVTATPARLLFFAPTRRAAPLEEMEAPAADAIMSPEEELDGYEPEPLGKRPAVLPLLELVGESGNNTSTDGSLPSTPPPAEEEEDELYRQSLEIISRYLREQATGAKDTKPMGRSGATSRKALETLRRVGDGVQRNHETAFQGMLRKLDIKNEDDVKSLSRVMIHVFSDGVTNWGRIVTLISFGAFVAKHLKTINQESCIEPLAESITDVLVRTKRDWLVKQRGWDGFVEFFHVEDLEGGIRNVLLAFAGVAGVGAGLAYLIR

Row | Structure (SMILES) | endogenous Mcl-1 level (Mcl-1 in HCT116 cells) | affinity for A1 (A1) | subG1 cells (HeLa cells) | affinity for Mcl-1 (Mcl-1)
1 | C[C@@H]1C[C@@H]([C@H](O)CC2CC(=O)NC(=O)C2)C(=O)[C@@H](C)C1 [cycloheximide] | significant decrease | – | – | –
2 | CN(C)CC[C@H](CSc1ccccc1)Nc1ccc(S(=O)(=O)NC(=O)c2ccc(N3CCN(Cc4ccccc4-c4ccc(Cl)cc4)CC3)cc2)cc1[N+](=O)[O-] [ABT-737] | – | low affinity | 35%±6.6% | low affinity
